# Data as given in patent publication US12077503B2, “Substituted cyclic amides and their use as herbicides” (FMC CORPORATION, priority 2015, dated 2024).
# Key:
# Assay type in all cases: in vivo
# Kochia (Kochia scoparia) [1] = assay: Test A preemergence; conditions: Preemergence
# Method in brief: (§1)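 In a loam soil and sand blend, planted seeds got a preemergence directed soil spray, and young plants at the one- to two-leaf stage, 2–10 cm high, got a postemergence application; ~10 d greenhouse hold; injury rated visually, 0 = none, 100 = complete control.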
# [2] = system: barnyardgrass (Echinochloa crus-galli); assay: Test A preemergence; conditions: Preemergence
# Method in brief: as §1
# [3] = system: giant foxtail (Setaria faberii); assay: Test A preemergence; conditions: Preemergence
# Method in brief: as §1
# [4] = system: pigweed (Amaranthus retroflexus); assay: Test A preemergence; conditions: Preemergence
# [5] = system: ragweed (common ragweed, Ambrosia elatior); assay: Test A preemergence; conditions: Preemergence
# Method in brief: as §1
# [6] = system: ryegrass, Italian (Italian ryegrass, Lolium multiflorum); assay: Test A preemergence; conditions: Preemergence
# Method in brief: as §1
# [7] = system: Galium (catchweed bedstraw, Galium aparine); assay: Test A postemergence
# Method in brief: as §1
# Kochia (Kochia scoparia) [8] = assay: Test A postemergence
# Method in brief: as §1
# [9] = system: barnyardgrass (Echinochloa crus-galli); assay: Test A postemergence
# Method in brief: as §1
# [10] = system: blackgrass (Alopecurus myosuroides); assay: Test A postemergence
# Method in brief: as §1
# corn (Zea mays) [11] = assay: Test A postemergence
# Method in brief: as §1
# [12] = system: giant foxtail (Setaria faberii); assay: Test A postemergence
# Method in brief: as §1
# [13] = system: pigweed (Amaranthus retroflexus); assay: Test A postemergence
# Method in brief: as §1
# [14] = system: ragweed (common ragweed, Ambrosia elatior); assay: Test A postemergence
# Method in brief: as §1
# [15] = system: ryegrass, Italian (Italian ryegrass, Lolium multiflorum); assay: Test A postemergence
# Method in brief: as §1
# [16] = system: wheat (Triticum aestivum); assay: Test A postemergence
# Method in brief: as §1
# [17] = system: barnyardgrass (Echinochloa crus-galli); assay: Test B flooded paddy test; conditions: Flood, 250 g ai/ha; 0 to 100 scale where 0 is no effect and 100 is complete control; 13 to 15 d
# Method in brief: (§2)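 Flooding to 3 cm over soil accompanied treatment, which consisted of adding compound to the standing water around 2-leaf plants; depth was then maintained. Visual assessment versus controls followed at 13 to 15 d (scale 0–100, 0 meaning no effect).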
# [18] = system: ducksalad (Heteranthera limosa); assay: Test B flooded paddy test; conditions: Flood, 250 g ai/ha; 0 to 100 scale where 0 is no effect and 100 is complete control; 13 to 15 d
# Method in brief: as §2
# rice (Oryra sativa) = assay: Test B flooded paddy test; conditions: Flood, 250 g ai/ha; 0 to 100 scale where 0 is no effect and 100 is complete control; 13 to 15 d
# Method in brief: as §2
# [19] = system: sedge, umbrella (small-flower umbrella sedge, Cyperus difformis); assay: Test B flooded paddy test; conditions: Flood, 250 g ai/ha; 0 to 100 scale where 0 is no effect and 100 is complete control; 13 to 15 d
# Method in brief: as §2
# [20] = system: barnyardgrass (Echinochloa crus-galli); assay: Test C flooded paddy test; conditions: Flood, 0 is no effect, 100 is complete control
# Description: (§3) Plant species in the flooded paddy test consisted of rice (Oryza sativa), sedge, umbrella (small-flower umbrella sedge, Cyperus difformis), ducksalad (Heteranthera limosa), and barnyardgrass (Echinochloa crus-galli) grown to the 2-leaf stage for testing. At time of treatment, test pots were flooded to 3 cm above the soil surface, treated by application of test compounds directly to the paddy water, and then maintained at that water depth for the duration of the test. Treated plants and controls were maintained in a greenhouse for 13 to 15 d, after which time all species were compared to controls and visually evaluated. Plant response ratings, summarized in Table C, are based on a scale of 0 to 100 where 0 is no effect and 100 is complete control. A dash (-) response means no test result.
# [21] = system: ducksalad (Heteranthera limosa); assay: Test C flooded paddy test; conditions: Flood, 0 is no effect, 100 is complete control
# Description: as §3
# rice (Oryza sativa) = assay: Test C flooded paddy test; conditions: Flood, 0 is no effect, 100 is complete control
# Description: as §3
# [22] = system: sedge, umbrella (small-flower umbrella sedge, Cyperus difformis); assay: Test C flooded paddy test; conditions: Flood, 0 is no effect, 100 is complete control
# Description: as §3
# corn (Zea mays) [23] = assay: Test A preemergence; conditions: Preemergence, 1000 g ai/ha; 0 is no effect, 100 is complete control
# Method in brief: as §1
# [24] = system: crabgrass, large (Digitaria sanguinalis); assay: Test A preemergence; conditions: Preemergence, 1000 g ai/ha; 0 is no effect, 100 is complete control
# Method in brief: as §1
# [25] = system: morningglory (Ipomoea spp.); assay: Test A preemergence; conditions: Preemergence, 1000 g ai/ha; 0 is no effect, 100 is complete control
# Method in brief: as §1
# [26] = system: velvetleaf (Abutilon theophrasti); assay: Test A preemergence; conditions: Preemergence, 1000 g ai/ha; 0 is no effect, 100 is complete control
# Method in brief: as §1
# [27] = system: wheat (Triticum aestivum); assay: Test A preemergence; conditions: Preemergence, 1000 g ai/ha; 0 is no effect, 100 is complete control
# Method in brief: as §1
# [28] = system: crabgrass, large (Digitaria sanguinalis); assay: Test A postemergence; conditions: 1000 g ai/ha, postemergence; 0 to 100 scale, 0 no effect, 100 complete control
# Method in brief: as §1
# [29] = system: morningglory (Ipomoea spp.); assay: Test A postemergence; conditions: 1000 g ai/ha, postemergence; 0 to 100 scale, 0 no effect, 100 complete control
# Method in brief: as §1
# [30] = system: velvetleaf (Abutilon theophrasti); assay: Test A postemergence; conditions: 1000 g ai/ha, postemergence; 0 to 100 scale, 0 no effect, 100 complete control
# Method in brief: as §1
# [31] = 125 g ai/ha, visual injury after approximately 10 d, 0 to 100 scale where 0 is no effect and 100 is complete control
# [32] = 500 g ai/ha, visual injury approx. 10 d
# [33] = 125 g ai/ha, postemergence, visual rating after approx. 10 d, 0 to 100 scale (0 no effect, 100 complete control)
# [34] = Postemergence, 500 g ai/ha, 0 to 100 scale where 0 is no effect and 100 is complete control
# [35] = 1000 g ai/ha, 0 is no effect, 100 is complete control
# [36] = 1000 g ai/ha, postemergence, 0 to 100 scale, 0 no effect, 100 complete control
smiles,measurement,setting,value
C=CCN1CC(c2cccc(C(F)(F)F)c2)C(C(=O)Nc2cccc(F)c2F)C1=O (centres unmarked) [Compound 606],"Plant response rating, Kochia",Kochia (Kochia scoparia) [1]; [31],0
same,"Kochia plant response rating (0 to 100 scale, 0 is no effect, 100 is complete control)",Kochia (Kochia scoparia) [1]; [32],0
same,"Plant response rating, Barnyardgrass",[2]; [31],50
same,"Barnyardgrass plant response rating (0 to 100 scale, 0 is no effect, 100 is complete control)",[2]; [32],80
same,"Plant response rating, Foxtail, Giant",[3]; [31],80
same,"Foxtail, Giant plant response rating (0 to 100 scale, 0 is no effect, 100 is complete control)",[3]; [32],90
same,"Plant response rating, Pigweed",[4]; [31],0
same,"Pigweed plant response rating (0 to 100 scale, 0 is no effect, 100 is complete control)",[4]; [32],0
same,"Plant response rating, Ragweed",[5]; [31],0
same,"Ragweed plant response rating (0 to 100 scale, 0 is no effect, 100 is complete control)",[5]; [32],0
same,"Plant response rating, Ryegrass, Italian",[6]; [31],0
same,"Ryegrass, Italian plant response rating (0 to 100 scale, 0 is no effect, 100 is complete control)",[6]; [32],0
same,"Plant response rating, Galium",[7]; [33],60
same,"Plant response rating, Galium",[7]; [34],70
same,"Plant response rating, Kochia",Kochia (Kochia scoparia) [8]; [33],0
same,"Plant response rating, Kochia",Kochia (Kochia scoparia) [8]; [34],0
same,"Plant response rating, Barnyardgrass",[9]; [33],50
same,"Plant response rating, Barnyardgrass",[9]; [34],70
same,"Plant response rating, Blackgrass",[10]; [33],0
same,"Plant response rating, Blackgrass",[10]; [34],40
same,"Plant response rating, Corn",corn (Zea mays) [11]; [33],0
same,"Plant response rating, Corn",corn (Zea mays) [11]; [34],0
same,"Plant response rating, Foxtail, Giant",[12]; [33],70
same,"Plant response rating, Foxtail, Giant",[12]; [34],90
same,"Plant response rating, Pigweed",[13]; [33],50
same,"Plant response rating, Pigweed",[13]; [34],70
same,"Plant response rating, Ragweed",[14]; [33],0
same,"Plant response rating, Ragweed",[14]; [34],0
same,"Plant response rating, Ryegrass, Italian",[15]; [33],0
same,"Plant response rating, Ryegrass, Italian",[15]; [34],0
same,"Plant response rating, Wheat",[16]; [33],0
same,"Plant response rating, Wheat",[16]; [34],0
same,"Plant response rating, Barnyardgrass",[17],50
same,"Plant response rating, Ducksalad",[18],0
same,"Plant response rating, Rice",rice (Oryra sativa),0
same,"Plant response rating, Sedge, Umbrella",[19],40
same,"Plant response rating (scale of 0 to 100), Barnyardgrass",[20]; 31 g ai/ha,0
same,"Plant response rating (scale of 0 to 100), Barnyardgrass",[20]; 62 g ai/ha,0
same,"Plant response rating (scale of 0 to 100), Barnyardgrass",[20]; 125 g ai/ha,20
same,"Plant response rating (scale of 0 to 100), Barnyardgrass",[20]; 250 g ai/ha,40
same,"Plant response rating (scale of 0 to 100), Ducksalad",[21]; 31 g ai/ha,0
same,"Plant response rating (scale of 0 to 100), Ducksalad",[21]; 62 g ai/ha,0
same,"Plant response rating (scale of 0 to 100), Ducksalad",[21]; 125 g ai/ha,50
same,"Plant response rating (scale of 0 to 100), Ducksalad",[21]; 250 g ai/ha,70
same,"Plant response rating (scale of 0 to 100), Rice",rice (Oryza sativa); 31 g ai/ha,0
same,"Plant response rating (scale of 0 to 100), Rice",rice (Oryza sativa); 62 g ai/ha,0
same,"Plant response rating (scale of 0 to 100), Rice",rice (Oryza sativa); 125 g ai/ha,0
same,"Plant response rating (scale of 0 to 100), Rice",rice (Oryza sativa); 250 g ai/ha,0
same,"Plant response rating (scale of 0 to 100), Sedge, Umbrella",[22]; 31 g ai/ha,0
same,"Plant response rating (scale of 0 to 100), Sedge, Umbrella",[22]; 62 g ai/ha,0
same,"Plant response rating (scale of 0 to 100), Sedge, Umbrella",[22]; 125 g ai/ha,0
same,"Plant response rating (scale of 0 to 100), Sedge, Umbrella",[22]; 250 g ai/ha,0
Cc1cccc(NC(=O)C2C(=O)NCC2c2ccc(F)c(F)c2)c1N (racemic) [Compound 355],Barnyardgrass plant response rating (0 to 100 scale),[2]; [35],0
same,Corn plant response rating (0 to 100 scale),corn (Zea mays) [23],0
same,"Crabgrass, Large plant response rating (0 to 100 scale)",[24],0
same,"Foxtail, Giant plant response rating (0 to 100 scale)",[3]; [35],0
same,Morningglory plant response rating (0 to 100 scale),[25],0
same,Pigweed plant response rating (0 to 100 scale),[4]; [35],0
same,Velvetleaf plant response rating (0 to 100 scale),[26],0
same,Wheat plant response rating (0 to 100 scale),[27],0
same,"Plant response rating, Barnyardgrass",[9]; [36],0
same,"Plant response rating, Corn",corn (Zea mays) [11]; [36],0
same,"Plant response rating, Crabgrass, Large",[28],0
same,"Plant response rating, Foxtail, Giant",[12]; [36],0
same,"Plant response rating, Morningglory",[29],0
same,"Plant response rating, Pigweed",[13]; [36],0
same,"Plant response rating, Velvetleaf",[30],0
same,"Plant response rating, Wheat",[16]; [36],0
